Test results published in US20110060044A1, “ALIPHATIC ACID-CONTAINING N-HALOGENATED AMINO ACID FORMULATIONS” (ALCON RESEARCH, LTD., priority 2007, published 2011).
“Also recorded” adds a separate entry of the source.

Legend:
[1] = test system: S. aureus; test: Antimicrobial activity (time-kill viability) evaluation with S. aureus; type: cell-based; details: measured by viable cells per mL, Table 1 / FIG. 1
Experimental: The antimicrobial activity of the formulations according to embodiments of the present invention were evaluated by a standard microbiological analysis. […] For the evaluation, bacterial and fungal isolates were grown overnight on appropriate agar media as source of fresh cells. A suspension of these fresh cells was prepared in saline at approximately 1×10^8 cfu/mL. These suspensions were added directly to the test agents (various solutions of sodium 2,2-dimethyl-N,N-dichlorotaurine and control solutions). The initial concentration of cells in the test agent solutions was approximately 1×10^6 cfu/mL. The exposure of microorganisms to the test agent was conducted at room temperature for up to 60 minutes. At selected times, an aliquot was withdrawn and diluted into phosphate buffered saline at 4° C. Viability was determined following serial dilution and filtration onto Milliflex cassettes.

[2] = test system: C. albicans; test: Antimicrobial activity (time-kill viability) evaluation with C. albicans; type: cell-based; details: measured by viable cells per mL, Table 2 / FIG. 2
Experimental: The antimicrobial activity of the formulations according to embodiments of the present invention were evaluated by a standard microbiological analysis. The results of this evaluation are summarized in Tables 1 and 2 below and are shown graphically in FIGS. 1 and 2. For the evaluation, bacterial and fungal isolates were grown overnight on appropriate agar media as source of fresh cells. A suspension of these fresh cells was prepared in saline at approximately 1×10^8 cfu/mL. These suspensions were added directly to the test agents (various solutions of sodium 2,2-dimethyl-N,N-dichlorotaurine and control solutions). The initial concentration of cells in the test agent solutions was approximately 1×10^6 cfu/mL. The exposure of microorganisms to the test agent was conducted at room temperature for up to 60 minutes. At selected times, an aliquot was withdrawn and diluted into phosphate buffered saline at 4° C. Viability was determined following serial dilution and filtration onto Milliflex cassettes.

CC(C)(CS(=O)(=O)O)N(Cl)Cl [2,2-dimethyl-N,N-dichlorotaurine]
anti-infective (antimicrobial) activity when the formulation contained sodium acetate [1]: dramatically improved; also recorded: increased
anti-infective (antimicrobial) activity when the formulation contained sodium acetate [2]: dramatically improved; also recorded: increased
